According to the NIST ThermoML archive (doi:10.1016/j.jct.2011.12.013):

Assay: xn = mol fraction of the nth substance listed
Details: Liquid, Custom Made Vibrating Tube Densimeter

C=C1CC[C@H]2C[C@@H]1C2(C)C [(1S,5S)-6,6-dimethyl-2-methylenebicyclo[3.1.1]heptane] + C=C(C)[C@H]1CC=C(C)CC1
mass density [kg/m3]
Details	x2 = 0	x2 = 0.11	x2 = 0.2008	x2 = 0.289	x2 = 0.3961	x2 = 0.4938	x2 = 0.5906	x2 = 0.6984	x2 = 0.7993	x2 = 0.9022
298.15 K, 30000 kPa	–	–	–	–	–	871.9	869.2	866.2	863.3	860.3
298.15 K, 35000 kPa	889.3	886.1	883.5	881	877.7	874.9	872.3	869	866.5	863.4
298.15 K, 40000 kPa	892.2	889	886.5	883.9	880.7	878	875.4	871.9	869	866.1
313.15 K, 20000 kPa	869.3	866.1	863.5	860.9	857.8	854.9	852.4	849.3	846.5	843.7
313.15 K, 25000 kPa	872.6	869.5	866.8	864.2	861.1	858.1	855.6	852.5	849.8	847
313.15 K, 30000 kPa	875.7	872.6	870.1	867.5	864.3	861.4	858.7	855.7	852.9	849.9
313.15 K, 35000 kPa	878.8	875.7	873.3	870.6	867.5	864.5	862	858.7	856.1	853
313.15 K, 40000 kPa	882	878.8	876.7	873.8	870.7	867.8	865	861.8	859.1	856
